The source of these data is ChEMBL document CHEMBL1201862, “PubChem BioAssay data set” (2004).

“And” between values parts separate entries of the source, which are not always exact repeats. Identical values can stand only once. The source made the active and inactive calls.

The target of experiment [1] is Sphingosine 1-phosphate receptor 2 (Homo sapiens, UniProt O95136). In words: Dose Response Cell Based Assay for Agonists of the S1P2 Receptor. [Related pubchem assays: 729, 736, 843 ]. It is filed as functional.
Sequence of Sphingosine 1-phosphate receptor 2 (O95136 whole entry): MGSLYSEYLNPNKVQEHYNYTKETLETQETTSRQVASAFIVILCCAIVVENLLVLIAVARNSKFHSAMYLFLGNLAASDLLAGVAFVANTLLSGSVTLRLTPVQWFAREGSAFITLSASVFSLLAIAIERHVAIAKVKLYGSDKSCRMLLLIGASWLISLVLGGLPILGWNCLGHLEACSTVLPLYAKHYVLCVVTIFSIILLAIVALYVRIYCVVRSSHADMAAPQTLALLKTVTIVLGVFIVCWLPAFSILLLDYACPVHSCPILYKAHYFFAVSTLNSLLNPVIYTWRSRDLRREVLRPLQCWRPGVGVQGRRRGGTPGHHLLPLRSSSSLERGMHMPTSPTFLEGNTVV
The nature of experiment [2]: Luminescence-based cell-based high throughput dose response assay to identify activators of the DAF-12 from the parasite S. stercoralis (ssDAF-12). It counts as functional.
The target of experiment [3] is T1, Oxysterols receptor LXR-beta (Homo sapiens, UniProt P55055).
T1 sequence (P55055 whole entry): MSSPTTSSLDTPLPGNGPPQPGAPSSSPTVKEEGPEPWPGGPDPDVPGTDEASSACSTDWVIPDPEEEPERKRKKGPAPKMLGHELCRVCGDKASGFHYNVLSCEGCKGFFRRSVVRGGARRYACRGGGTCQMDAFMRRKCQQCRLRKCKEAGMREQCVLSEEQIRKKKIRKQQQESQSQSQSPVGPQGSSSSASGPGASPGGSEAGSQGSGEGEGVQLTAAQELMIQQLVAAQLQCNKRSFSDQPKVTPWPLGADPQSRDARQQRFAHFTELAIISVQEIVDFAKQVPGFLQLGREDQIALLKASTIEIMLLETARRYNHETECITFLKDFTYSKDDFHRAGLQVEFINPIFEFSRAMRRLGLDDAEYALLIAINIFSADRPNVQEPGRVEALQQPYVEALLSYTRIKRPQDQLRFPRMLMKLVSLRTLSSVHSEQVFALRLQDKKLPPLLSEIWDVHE
In words: LXR agonists, Gal4 luciferase reporter, dose response, counter-screen for ssDAF-12 agonist project, cell-based, luminescence, HEK293, S. stercoralis campaign (AID 720737). It is filed as functional. The conditions noted are these: read-out: IC50 (the source's name).

A short description of experiment [4]: viability of uninfected HEp-2 cells – cell-based, HTS, cytotoxicity control for RSV inhibitor project, dose response (AID 2410). Conditions: human respiratory syncytial virus. It counts as functional.
The target of experiment [5] is T2, Bcl-2-related protein A1 (Mus musculus, UniProt Q07440).
T2 sequence (Q07440 whole entry): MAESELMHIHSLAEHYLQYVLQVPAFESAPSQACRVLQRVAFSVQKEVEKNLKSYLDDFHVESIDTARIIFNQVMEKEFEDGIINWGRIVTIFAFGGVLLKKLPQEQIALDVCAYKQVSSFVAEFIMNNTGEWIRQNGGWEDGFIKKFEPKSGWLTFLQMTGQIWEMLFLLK
In words: small-molecule antagonists of Bfl-1/BH3 interaction – biochemical, TR-FRET, mouse Bfl-1, confirmation (AID 621).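 Further: TR-FRET binding of GST-Bfl-1 to FITC-labelled Bid peptide via terbium antibody.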 In general terms: Time-resolved FRET reads energy transfer from a long-lived donor to a nearby acceptor.

Experiment [6] addresses T2, Bcl-2-related protein A1. Put plainly: Bfl-1 binding inhibitors, SAR follow-up, biochemical, fluorescence polarization (AID 1070). In general terms: Polarisation of emitted light reports the rotation of a fluorescent probe.
Experiment [7] concerns Vero. Put plainly: mammalian cell viability reduction – secondary assay, cytotoxicity control for West Nile virus antiviral project, dose response (AID 1650). It is filed as functional. The conditions noted are these: Chlorocebus sabaeus.
The subject of experiment [8] is Vero. Put plainly: inhibition of WNV-induced cytopathic effect – cell-based, CPE readout (AID 1621). Conditions: Chlorocebus sabaeus. It counts as functional. Background: Damage to the host cells serves as the signal in cytopathic effect assays.
Experiment [9] relates to Streptococcus sp. 'group A'. In words: Streptococcus pyogenes SK(-)GAS viability under kanamycin – luminescence, BacTiterGlo, confirmation, counter-screen for streptokinase expression inhibitor project, dose response (AID 1900). It counts as functional, organism-based.
The target of a further experiment is T3, Streptokinase A (Streptococcus pyogenes serotype M1, UniProt P10520).
T3 sequence (P10520 whole entry): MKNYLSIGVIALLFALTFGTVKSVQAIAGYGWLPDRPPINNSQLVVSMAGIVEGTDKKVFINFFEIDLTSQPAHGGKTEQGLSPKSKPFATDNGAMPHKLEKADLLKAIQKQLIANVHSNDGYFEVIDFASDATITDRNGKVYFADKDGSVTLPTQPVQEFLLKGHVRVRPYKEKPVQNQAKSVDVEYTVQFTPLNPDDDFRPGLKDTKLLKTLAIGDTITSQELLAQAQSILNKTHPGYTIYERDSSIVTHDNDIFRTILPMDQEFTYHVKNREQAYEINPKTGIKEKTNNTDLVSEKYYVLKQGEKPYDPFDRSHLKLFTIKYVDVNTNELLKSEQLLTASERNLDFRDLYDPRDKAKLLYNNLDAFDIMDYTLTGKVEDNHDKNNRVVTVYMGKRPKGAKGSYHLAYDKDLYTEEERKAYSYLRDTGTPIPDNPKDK
Put plainly: viability-normalized secreted streptokinase activity reduction – plasminogen activation absorbance, OD405, dose response (AID 1914).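 Further: secreted streptokinase activity via plasminogen activation per viability signal from cell pellet.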 It counts as functional, Streptococcus pyogenes M1 GAS.

The target of a further experiment is Ephrin type-A receptor 4 (Mus musculus, UniProt Q03137). Put plainly: EphA4 ligand-binding antagonists – biochemical, colorimetric, mouse EphA4, primary screen (AID 689). It is filed as functional.
The subject of a further experiment is Streptococcus. In words: GAS UMAA2166 growth inhibition – luminescence, BacTiterGlo, counter-screen for streptokinase expression inhibitor project, dose response (AID 1915).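 Further: potency for reduction of bacterial viability or growth.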 It counts as functional, organism-based.
The target in experiment [10] is T4, Voltage-gated inwardly rectifying potassium channel KCNH2 (Homo sapiens, UniProt Q12809). Put plainly: concentration-dependent hERG rescue from blockers – cell-based, thallium flux, dose response (AID 2121). It counts as ADME.
T4 sequence (Q12809 whole entry): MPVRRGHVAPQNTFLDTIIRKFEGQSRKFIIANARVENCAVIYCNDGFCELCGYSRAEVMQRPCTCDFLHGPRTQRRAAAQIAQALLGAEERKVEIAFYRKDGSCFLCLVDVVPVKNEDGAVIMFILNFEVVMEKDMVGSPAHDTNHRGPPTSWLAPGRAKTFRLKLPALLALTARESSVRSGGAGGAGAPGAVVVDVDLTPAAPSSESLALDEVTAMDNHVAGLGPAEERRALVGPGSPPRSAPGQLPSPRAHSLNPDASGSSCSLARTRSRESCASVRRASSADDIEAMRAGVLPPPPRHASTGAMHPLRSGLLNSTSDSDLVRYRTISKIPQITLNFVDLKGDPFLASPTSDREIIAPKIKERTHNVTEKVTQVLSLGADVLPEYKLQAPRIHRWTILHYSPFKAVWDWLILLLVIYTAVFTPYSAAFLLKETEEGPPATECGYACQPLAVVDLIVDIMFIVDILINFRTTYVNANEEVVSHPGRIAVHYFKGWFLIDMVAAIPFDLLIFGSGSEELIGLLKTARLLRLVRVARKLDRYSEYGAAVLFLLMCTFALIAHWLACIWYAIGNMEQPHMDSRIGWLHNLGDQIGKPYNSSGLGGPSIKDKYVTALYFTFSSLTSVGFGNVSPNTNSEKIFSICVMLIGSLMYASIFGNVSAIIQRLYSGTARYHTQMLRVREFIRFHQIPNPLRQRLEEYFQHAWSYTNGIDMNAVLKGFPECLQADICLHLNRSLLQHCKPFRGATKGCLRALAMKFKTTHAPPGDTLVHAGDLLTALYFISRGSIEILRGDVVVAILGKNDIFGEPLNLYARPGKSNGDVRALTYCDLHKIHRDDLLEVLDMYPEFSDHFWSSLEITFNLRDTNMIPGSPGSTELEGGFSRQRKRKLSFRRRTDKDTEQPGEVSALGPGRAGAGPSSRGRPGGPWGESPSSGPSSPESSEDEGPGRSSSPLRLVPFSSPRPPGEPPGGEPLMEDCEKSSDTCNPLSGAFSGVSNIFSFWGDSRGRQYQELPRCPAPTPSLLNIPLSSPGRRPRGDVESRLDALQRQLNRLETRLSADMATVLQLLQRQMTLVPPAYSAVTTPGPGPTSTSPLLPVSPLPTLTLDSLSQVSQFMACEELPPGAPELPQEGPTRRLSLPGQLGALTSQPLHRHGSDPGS
Another experiment addresses T5, NADPH oxidase 1 (Homo sapiens, UniProt Q9Y5S8).
T5 sequence (Q9Y5S8 whole entry): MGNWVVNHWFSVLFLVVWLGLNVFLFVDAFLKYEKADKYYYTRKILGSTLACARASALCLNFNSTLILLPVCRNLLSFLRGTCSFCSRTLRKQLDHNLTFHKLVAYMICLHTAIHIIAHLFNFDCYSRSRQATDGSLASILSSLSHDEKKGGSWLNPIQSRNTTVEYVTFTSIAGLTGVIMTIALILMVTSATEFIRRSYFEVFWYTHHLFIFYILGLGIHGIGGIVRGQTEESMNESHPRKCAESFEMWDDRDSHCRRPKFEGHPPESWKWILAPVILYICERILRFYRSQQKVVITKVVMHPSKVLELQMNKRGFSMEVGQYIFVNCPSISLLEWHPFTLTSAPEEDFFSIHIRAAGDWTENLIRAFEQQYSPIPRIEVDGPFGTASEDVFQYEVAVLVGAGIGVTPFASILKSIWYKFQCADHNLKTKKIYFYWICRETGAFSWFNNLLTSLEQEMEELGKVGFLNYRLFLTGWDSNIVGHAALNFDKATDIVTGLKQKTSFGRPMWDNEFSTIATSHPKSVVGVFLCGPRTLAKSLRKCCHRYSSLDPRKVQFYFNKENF
In words: Late-stage luminescence-based cell-based dose response assay to identify inhibitors of NADPH oxidase 1 (NOX1): Synthesized analogs 2. It counts as functional.

A further experiment has as its target Paired box protein Pax-8 (Homo sapiens, UniProt Q06710). In words: PAX8 transcriptional activity inhibition in RMG-I – RMG-I cells, luciferase, cherry-pick, dose response (AID 687027).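 Further: luciferase reporter driven by Pax8 target thyroperoxidase promoter measured by SteadyGlo luminescence.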 It is filed as functional, cell-based.
A short description of experiment [11]: IGROV1 cell killing – plate reader, dry powder samples, PAX8 inhibitor project, dose response (AID 743043). It is filed as functional, cell-based. Conditions: IGROV-1.
The nature of experiment [12]: antimalarial activity against Dd2 parasites – SYBR Green fluorescence, erythrocytes, dry powder, set 2, dose response (AID 1159574). It is filed as functional, cell-based.
The target of experiment [13] is G-protein coupled receptor 183 (Homo sapiens, UniProt P32249). In words: SAR confirmation of small molecule antagonists of the EBI2 receptor via a luminescent beta-arrestin assa. It is filed as functional.
Sequence of G-protein coupled receptor 183 (P32249 whole entry): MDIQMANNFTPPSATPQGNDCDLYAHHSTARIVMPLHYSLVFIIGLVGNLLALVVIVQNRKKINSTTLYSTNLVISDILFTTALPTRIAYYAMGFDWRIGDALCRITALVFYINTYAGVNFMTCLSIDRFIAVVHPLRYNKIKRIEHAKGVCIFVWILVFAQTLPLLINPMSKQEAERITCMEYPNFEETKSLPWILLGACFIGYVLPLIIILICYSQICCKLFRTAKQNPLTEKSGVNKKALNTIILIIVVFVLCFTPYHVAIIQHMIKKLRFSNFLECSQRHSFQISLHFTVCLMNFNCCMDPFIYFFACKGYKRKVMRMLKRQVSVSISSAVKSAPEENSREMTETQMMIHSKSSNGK
Experiment [14] relates to BJ. Put plainly: BJ-TERT fibroblast viability loss – cell-based, RAS-independent, luminescence, dose response (AID 1933). It counts as functional. Conditions: Homo sapiens.
Experiment [15] concerns BJ. Put plainly: cells. It counts as functional, cell-based. Conditions: Homo sapiens.
Experiment [16] deals with BJ. Put plainly: BJ-TERT-LT-ST fibroblast viability loss – cell-based, RAS-independent, luminescence, dose response (AID 1935).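 Further: BJ fibroblasts immortalized with TERT plus LT and ST oncogenes.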 It is filed as functional. The conditions noted are these: Homo sapiens.
The nature of experiment [17]: DRD fibroblast viability loss – cell-based, non-viral oncogenic, luminescence, dose response (AID 1934). It counts as functional. Conditions: Homo sapiens.
Experiment [18] has as its target Glucose-6-phosphate 1-dehydrogenase (Homo sapiens, UniProt P11413). Put plainly: inhibition of Homo sapiens G6PD, dose series – biochemical, fluorescence, selectivity assay for P. falciparum G6PD inhibitor project, dose response (AID 504792). It is filed as functional.
The target in the next experiment is Nonstructural protein 1 (Influenza A virus, UniProt Q194T2). It counts as functional, Influenza A virus (A/California/07/2009(H1N1)).
Sequence of Nonstructural protein 1 (Q194T2 whole entry): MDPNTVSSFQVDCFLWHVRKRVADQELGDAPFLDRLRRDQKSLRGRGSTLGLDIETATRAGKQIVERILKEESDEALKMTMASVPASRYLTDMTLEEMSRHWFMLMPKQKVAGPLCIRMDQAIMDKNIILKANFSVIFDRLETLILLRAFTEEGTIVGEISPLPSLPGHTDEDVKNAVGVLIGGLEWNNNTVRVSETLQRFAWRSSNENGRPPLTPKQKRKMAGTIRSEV
Experiment [19] addresses T6, Probable nicotinate-nucleotide adenylyltransferase (Staphylococcus aureus (strain N315), UniProt P65502). It counts as functional, Staphylococcus aureus subsp. aureus N315.
Experiment [20] concerns the target T6, Probable nicotinate-nucleotide adenylyltransferase. It is filed as functional, Staphylococcus aureus subsp. aureus N315. The conditions noted are these: read-out: IC50_Mean.
A further experiment deals with Protein Tat (Human immunodeficiency virus type 1 group M subtype B (isolate HXB2)(HIV-1), UniProt P04608). It is filed as functional.
Sequence of Protein Tat (P04608 whole entry): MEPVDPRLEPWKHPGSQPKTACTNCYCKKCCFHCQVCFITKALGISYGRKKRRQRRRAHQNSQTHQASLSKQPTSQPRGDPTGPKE
A short description of experiment [21]: viability loss in THP-1 monocytes – THP-1 cells, cytotoxicity control for Vif-APOBEC3G degradation inhibitor project, dose response (AID 1117359). It counts as functional. Conditions: THP-1.
In experiment [22] the target is Glutathione-S-transferase (Schistosoma japonicum, UniProt Q26513). In words: GST-antibody interaction or FRET quenching – biochemical, TR-FRET, artefact control for Vif-APOBEC3G degradation inhibitor project, dose response (AID 1117362). It counts as functional.
Sequence of Glutathione-S-transferase (Q26513 whole entry): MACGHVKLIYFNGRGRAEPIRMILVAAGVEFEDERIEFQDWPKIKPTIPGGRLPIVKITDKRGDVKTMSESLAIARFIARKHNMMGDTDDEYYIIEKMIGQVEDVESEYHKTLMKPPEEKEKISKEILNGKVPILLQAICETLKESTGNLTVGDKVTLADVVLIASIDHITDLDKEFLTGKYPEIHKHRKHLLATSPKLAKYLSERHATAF
Experiment [23] in a line: rise of 2N DNA cells, HeLa – IC50, dose response (AID 1117349). It is filed as functional, cell-based.
A short description of experiment [24]: rise of 4N DNA cells, HeLa – IC50, dose response (AID 1117351). It is filed as functional, cell-based.
Another experiment has as its target Heat shock protein HSP90 (Homo sapiens, UniProt P07900+P08238). In words: Hsp90 blockade concentration-response – dose response (AID 712). It counts as functional.
Experiment [25] deals with Protein-tyrosine kinase 2-beta (Homo sapiens, UniProt Q14289).
Sequence of Protein-tyrosine kinase 2-beta (Q14289 whole entry): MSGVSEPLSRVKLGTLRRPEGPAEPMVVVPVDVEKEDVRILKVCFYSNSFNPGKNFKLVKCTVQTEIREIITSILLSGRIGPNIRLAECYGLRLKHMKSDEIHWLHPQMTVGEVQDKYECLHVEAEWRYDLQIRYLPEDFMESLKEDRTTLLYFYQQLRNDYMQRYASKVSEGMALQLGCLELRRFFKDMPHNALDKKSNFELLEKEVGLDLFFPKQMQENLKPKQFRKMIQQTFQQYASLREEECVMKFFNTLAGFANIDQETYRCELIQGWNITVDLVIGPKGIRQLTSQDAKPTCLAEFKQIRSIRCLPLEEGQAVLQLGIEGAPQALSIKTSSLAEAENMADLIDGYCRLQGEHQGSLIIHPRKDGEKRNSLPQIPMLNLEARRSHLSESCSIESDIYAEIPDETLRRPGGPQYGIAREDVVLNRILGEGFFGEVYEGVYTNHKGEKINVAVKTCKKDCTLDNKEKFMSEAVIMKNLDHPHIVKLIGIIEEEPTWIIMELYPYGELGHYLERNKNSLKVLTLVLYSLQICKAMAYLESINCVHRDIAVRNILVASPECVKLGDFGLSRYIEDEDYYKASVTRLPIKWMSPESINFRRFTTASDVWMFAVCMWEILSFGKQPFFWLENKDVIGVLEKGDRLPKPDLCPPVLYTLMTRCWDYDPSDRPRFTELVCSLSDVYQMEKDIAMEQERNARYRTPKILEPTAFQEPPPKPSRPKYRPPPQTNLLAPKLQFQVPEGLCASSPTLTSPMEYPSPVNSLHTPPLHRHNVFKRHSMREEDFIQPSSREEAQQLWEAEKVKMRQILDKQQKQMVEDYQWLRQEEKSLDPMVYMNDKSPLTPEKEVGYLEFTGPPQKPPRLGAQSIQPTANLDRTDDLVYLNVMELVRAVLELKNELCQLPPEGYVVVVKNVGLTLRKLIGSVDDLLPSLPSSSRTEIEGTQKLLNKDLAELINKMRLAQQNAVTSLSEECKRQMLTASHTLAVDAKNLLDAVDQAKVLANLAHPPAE
Experiment [26] deals with T4, Voltage-gated inwardly rectifying potassium channel KCNH2. The conditions noted are these: Potency.
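Wherever IC50 Mean is given: confirmatory dose-response retesting of NadD inhibitor hits first found in an ultra-high-throughput screen.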

T6 sequence (P65502 whole entry): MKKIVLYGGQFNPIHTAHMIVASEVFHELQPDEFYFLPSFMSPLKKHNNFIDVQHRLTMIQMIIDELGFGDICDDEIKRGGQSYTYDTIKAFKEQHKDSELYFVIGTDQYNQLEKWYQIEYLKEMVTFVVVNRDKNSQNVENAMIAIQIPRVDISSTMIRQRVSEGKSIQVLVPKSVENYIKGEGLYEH
Sequence of Glucose-6-phosphate 1-dehydrogenase (P11413 whole entry): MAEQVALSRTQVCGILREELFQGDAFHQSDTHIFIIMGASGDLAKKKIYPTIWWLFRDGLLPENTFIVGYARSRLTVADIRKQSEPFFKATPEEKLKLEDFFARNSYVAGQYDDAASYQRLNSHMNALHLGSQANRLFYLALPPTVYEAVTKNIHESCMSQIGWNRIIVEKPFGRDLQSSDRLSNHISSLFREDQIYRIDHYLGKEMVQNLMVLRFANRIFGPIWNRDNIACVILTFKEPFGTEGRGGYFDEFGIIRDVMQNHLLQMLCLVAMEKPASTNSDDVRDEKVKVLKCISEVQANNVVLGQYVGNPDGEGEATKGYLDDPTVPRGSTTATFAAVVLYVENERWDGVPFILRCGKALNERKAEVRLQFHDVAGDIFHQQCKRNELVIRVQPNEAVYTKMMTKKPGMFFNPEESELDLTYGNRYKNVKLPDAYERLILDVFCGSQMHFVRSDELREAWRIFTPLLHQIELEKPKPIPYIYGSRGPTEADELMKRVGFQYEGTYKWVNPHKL
Sequence of Paired box protein Pax-8 (Q06710 whole entry): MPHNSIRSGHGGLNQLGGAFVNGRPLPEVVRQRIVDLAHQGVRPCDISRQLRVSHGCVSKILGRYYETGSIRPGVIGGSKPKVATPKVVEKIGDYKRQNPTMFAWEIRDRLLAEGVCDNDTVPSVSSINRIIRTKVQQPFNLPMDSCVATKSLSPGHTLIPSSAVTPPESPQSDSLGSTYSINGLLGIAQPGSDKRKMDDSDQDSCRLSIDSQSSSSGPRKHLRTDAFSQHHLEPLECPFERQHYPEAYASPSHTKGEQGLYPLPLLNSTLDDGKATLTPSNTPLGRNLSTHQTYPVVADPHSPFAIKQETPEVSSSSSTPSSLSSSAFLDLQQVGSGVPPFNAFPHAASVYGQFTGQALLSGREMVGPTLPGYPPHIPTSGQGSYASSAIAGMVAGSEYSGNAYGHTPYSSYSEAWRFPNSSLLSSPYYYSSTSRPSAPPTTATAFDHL

In the case of `Cc1ccc(C2CC(=O)c3cnc(N4CCc5ccccc5C4)nc3C2)cc1` (stereo not given), the EC50 in [1] is > 50 µM (not active).
Turning to `NC(=O)c1ccccc1NC(=O)c1ccc2ccccc2c1`, the IC50 in experiment [2] was > 67.6 µM (inactive). In addition, in experiment [3], the EC50 is > 67.6 µM (inactive).
A word on the CC50: it is the concentration at which the toxic effect on the cells reaches its halfway point. Take `COc1ccc2nc(O)c(-c3nnn(-c4ccc(Cl)c(Cl)c4)n3)cc2c1`: the 50% cytotoxic concentration (CC50) in [4] was > 50 µM (active). Further, the IC50 against Bcl-2-related protein A1 [5] and on Bcl-2-related protein A1 [6] was > 100 µM (not active) in each case.
Turning to `CCN(CC)S(=O)(=O)c1ccc2nc(O)c3ccccc3c2c1`, in the experiment on Vero [7], the 50% cytotoxic concentration (CC50) was 38.9 µM (active). Moreover, the IC50 in the experiment on Vero [8] was 45.5 µM (active).
For `CCC(C)COC(=O)C(C#N)c1nc2ccccc2nc1N1CCCCC1` (stereo not given), the EC50 in [9] was 41.9 µM (active); at Streptokinase A it was > 150 µM (not active); in the experiment with Streptococcus, 150 µM (active). Also, the IC50 on Ephrin type-A receptor 4 is 17.5 µM (active).
For `CCOC(=O)c1sc2nc(Cc3ccc(Cl)cc3)[nH]c(=S)c2c1C`, the figures for the EC50 (on Streptokinase A; in experiment [10]) were > 150 µM (not active) and 0.92 µM (active), respectively.
Turning to `CN1c2ccccc2Sc2cc(NC(=O)c3ccc(C(=O)c4ccccc4)cc3)ccc21`, the IC50 against NADPH oxidase 1 was > 50 µM (not active).
Broadly, the AC50 is the concentration at which the activity in the assay is half-maximal. Take `COc1ccc(NC(=O)N2CCCCN3[C@H](CO)[C@H](c4ccc(C#Cc5ccccc5)cc4)[C@H]3C2)cc1`: the concentration at half-maximal activity (AC50) on Paired box protein Pax-8 is 23.2 µM (active); in [11], 46.7 µM (active); in experiment [12], 3.22 µM (active).
For the compound `CC(C)(C)c1ccc(CN2CCN(C(=O)/C=C/c3ccc(Br)cc3)CC2)cc1`, the IC50 in experiment [13] was 0.00936 µM (active).
For the compound `CCN1/C(=C/C=C/C=C/C=C/c2sc3ccccc3[n+]2CC)Sc2ccccc21`, the EC50 was 3.21 µM (active) with BJ [14], 17.8 µM (active) with BJ [15], 11.8 µM (inconclusive) in the experiment on BJ [16] and 10.6 µM (active) in experiment [17]. Moreover, the IC50 in experiment [18] is > 80 µM (inactive); on Nonstructural protein 1 it was 5.73 µM (active); in [19] it was 19.8 µM (active); in [20] it was 27 µM (active); on Protein Tat, > 100 µM (active); in experiment [22], 3.88 µM (active). Besides, the CC50 in experiment [21] was 1.26 µM (active).
For `Cc1cc(CC(C)CC(C)(C)C)n(O)c(=O)c1` (stereo not given) [PIROCTONE], the IC50 in experiment [23] and in experiment [24] was > 10 µM (inactive) each time.
`C[C@H]1CCCC(=O)CCC/C=C/c2cc(O)cc(O)c2C(=O)O1` [ZEARALENONE]: the values for the IC50 (against Heat shock protein HSP90; in experiment [25]) were 2.402 µM and 6.92 µM (active), respectively. For the same compound, the half-maximal activity concentration (AC50) in [26] is 39.8 µM (inconclusive) and 56.2 µM (inconclusive).
